This data set has as its system bovine blood treated with heparin. The experiment in a line: Hemolysis of heparin-treated bovine blood, absorbance of supernatant at 398 nm. The note with it: sample added to 1.4 mL heparinized bovine blood, room temperature, 10 minutes. The method, then:
100 μL of a 5 mg/mL lyophilized docetaxel preparation (50 mM sodium oleate reconstituted with 6% liposome (Doc-100), 200 μL of 5 mg/mL lyophilized docetaxel containing 50 mM sodium oleate and reconstituted with 6% liposome (Doc-200), […] of placebo containing 50 mM sodium oleate and reconstituted with 6% liposome (Placebo-100), 200 μL of placebo containing 50 mM sodium oleate and reconstituted with 6% liposome (Placebo-200), […] of Reverse osmotic deionized water (RODI (positive control)), 50 n1, of 50 mM sodium oleate (Na oleate-50) in isotonic 2.5% glycerol or 100 μL of 50 mM sodium oleate (Na oleate-100), or 200 μL of phosphate buffered saline (negative control)) was added to 1.4 mL of bovine blood treated with heparin. Doc-100 and Doc-200 were prepared using procedures similar to those in Examples 1 and 2. The samples were incubated at room temperature for 10 minutes, and then centrifuged at 8000 rpm for 20 minutes. The supernatant was used for spectral analysis. The absorbance of the samples was measured by UV-scanning the samples at wavelengths from 190 nm to 810 nm. The high absorbance at 398 nm is due to hemolysis of the blood.

`CCCCCCCC/C=C\CCCCCCCC(=O)[O-].[Na+]` [Na oleate-50, sodium oleate]: the “hemolysis (absorbance at 398 nm, FIG. 1)” value is “complete hemolysis”.
